Laboratory results published in ChEMBL document CHEMBL1201862, “PubChem BioAssay data set” (2004).
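Following 48 hours of exposure in 96-well plates, responses at five concentrations were used to interpolate endpoints linearly. GI50 marks 50% less growth.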 Calls of active or inactive are those of the source. No stated cut-off is given here; in the data, active = GI50 up to about 1.1 µM and inactive = higher.

What was measured:
Test in all cases: growth of human tumour cells (NCI), 48 h
DU-145 = test system: DU-145
Hs-578T = test system: Hs-578T
EKVX = test system: EKVX
SK-MEL-2 = test system: SK-MEL-2
LOX IMVI = test system: LOX IMVI
CCRF-CEM = test system: CCRF-CEM
NCI/ADR-RES = test system: NCI/ADR-RES
HT-29 = test system: HT-29
HCC 2998 = test system: HCC 2998
MOLT-4 = test system: MOLT-4
MDA-MB-231 = test system: MDA-MB-231
MCF7 = test system: MCF7
BT-549 = test system: BT-549
HOP-92 = test system: HOP-92
SNB-75 = test system: SNB-75
RPMI-8226 = test system: RPMI-8226
UO-31 = test system: UO-31
786-0 = test system: 786-0
NCI-H226 = test system: NCI-H226
SW-620 = test system: SW-620

C[C@@H]1CCC[C@]2(C)O[C@H]2CC[C@@](C)(O)[C@@H]2CC3=C(CO)C(=O)O[C@H]3[C@H]1O2
GI50 (DU-145): > 50 µM (inactive) | GI50 (Hs-578T): > 50 µM (inactive) | GI50 (EKVX): > 50 µM (inactive) | GI50 (SK-MEL-2): > 50 µM (inactive) | GI50 (LOX IMVI): > 50 µM (inactive) | GI50 (CCRF-CEM): 34.1 µM (inactive) | GI50 (NCI/ADR-RES): > 50 µM (inactive) | GI50 (HT-29): > 50 µM (inactive) | GI50 (HCC 2998): > 50 µM (inactive) | GI50 (MOLT-4): > 50 µM (inactive) | GI50 (MDA-MB-231): > 50 µM (inactive) | GI50 (MCF7): > 50 µM (inactive) | GI50 (BT-549): > 50 µM (inactive) | GI50 (HOP-92): > 50 µM (inactive) | GI50 (SNB-75): > 50 µM (inactive) | GI50 (RPMI-8226): 28.1 µM (inactive) | GI50 (UO-31): > 50 µM (inactive) | GI50 (786-0): > 50 µM (inactive) | GI50 (NCI-H226): > 50 µM (inactive) | GI50 (SW-620): > 50 µM (inactive)

COc1cc(N(CCC#N)CCC#N)ccc1C(=N/NC(=O)c1cc(Br)ccc1O)/N=N/c1ccc(C)cc1
GI50 (DU-145): 27.4 µM (inactive) | GI50 (Hs-578T): 40.2 µM (inactive) | GI50 (EKVX): 21.7 µM (inactive) | GI50 (SK-MEL-2): 23.7 µM (inactive) | GI50 (LOX IMVI): 17.9 µM (inactive) | GI50 (CCRF-CEM): 4.5 µM (inactive) | GI50 (NCI/ADR-RES): 27.1 µM (inactive) | GI50 (HT-29): 32.6 µM (inactive) | GI50 (HCC 2998): 19.7 µM (inactive) | GI50 (MOLT-4): 14 µM (inactive) | GI50 (MDA-MB-231): 15.5 µM (inactive) | GI50 (MCF7): 17.4 µM (inactive) | GI50 (BT-549): 18 µM (inactive) | GI50 (HOP-92): 20.8 µM (inactive) | GI50 (SNB-75): 22.6 µM (inactive) | GI50 (RPMI-8226): 22.2 µM (inactive) | GI50 (UO-31): 18.5 µM (inactive) | GI50 (786-0): 32.1 µM (inactive) | GI50 (NCI-H226): 32.4 µM (inactive) | GI50 (SW-620): 29.7 µM (inactive)

COc1ccc(C2Oc3ccc(Cl)cc3C=C2[N+](=O)[O-])cc1OC (stereo not given)
GI50 (DU-145): 1.62 µM (inactive) | GI50 (Hs-578T): 1.07 µM (active) | GI50 (EKVX): 2.72 µM (inactive) | GI50 (SK-MEL-2): 1.48 µM (inactive) | GI50 (LOX IMVI): 0.32 µM (active) | GI50 (CCRF-CEM): 0.0413 µM (active) | GI50 (NCI/ADR-RES): 0.456 µM (active) | GI50 (HT-29): 1 µM (active) | GI50 (HCC 2998): 1.77 µM (inactive) | GI50 (MOLT-4): 0.216 µM (active) | GI50 (MDA-MB-231): 1.27 µM (inactive) | GI50 (MCF7): 0.776 µM (active) | GI50 (BT-549): 1.15 µM (inactive) | GI50 (HOP-92): 1.88 µM (inactive) | GI50 (SNB-75): 1.13 µM (inactive) | GI50 (RPMI-8226): 0.229 µM (active) | GI50 (UO-31): 2 µM (inactive) | GI50 (786-0): 0.388 µM (active) | GI50 (NCI-H226): 1.64 µM (inactive) | GI50 (SW-620): 0.188 µM (active)

CC1=C(C2=C(C)C(=O)C(=O)c3cc(C)ccc32)c2ccc(C)cc2C(=O)C1=O
GI50 (DU-145): 1.44 µM (inactive) | GI50 (Hs-578T): 0.318 µM (active) | GI50 (EKVX): 0.28 µM (active) | GI50 (SK-MEL-2): 0.313 µM (active) | GI50 (LOX IMVI): 0.207 µM (active) | GI50 (CCRF-CEM): 0.152 µM (active) | GI50 (NCI/ADR-RES): 0.274 µM (active) | GI50 (HT-29): 0.277 µM (active) | GI50 (HCC 2998): 0.155 µM (active) | GI50 (MOLT-4): 0.287 µM (active) | GI50 (MDA-MB-231): 0.283 µM (active) | GI50 (MCF7): 0.218 µM (active) | GI50 (BT-549): 0.19 µM (active) | GI50 (HOP-92): 0.174 µM (active) | GI50 (SNB-75): 0.236 µM (active) | GI50 (RPMI-8226): 0.333 µM (active) | GI50 (UO-31): 0.178 µM (active) | GI50 (786-0): 0.318 µM (active) | GI50 (NCI-H226): 1.9 µM (inactive) | GI50 (SW-620): 0.255 µM (active)

C[C@]12CC[C@H]3[C@@H](CC=C4C[C@@H](O)CC[C@@]43C)[C@@H]1C/C(=C/c1ccccc1)[C@@H]2O
GI50 (DU-145): > 42.2 µM (inactive) | GI50 (Hs-578T): 43 µM (inactive) | GI50 (EKVX): 11.8 µM (inactive) | GI50 (SK-MEL-2): 20.9 µM (inactive) | GI50 (LOX IMVI): > 33.6 µM (inactive) | GI50 (CCRF-CEM): 14.6 µM (inactive) | GI50 (NCI/ADR-RES): 17.7 µM (inactive) | GI50 (HT-29): 28.3 µM (inactive) | GI50 (HCC 2998): 17.9 µM (inactive) | GI50 (MOLT-4): > 32.7 µM (inactive) | GI50 (MDA-MB-231): 43.1 µM (inactive) | GI50 (MCF7): > 33 µM (inactive) | GI50 (BT-549): 24.1 µM (inactive) | GI50 (HOP-92): 32.4 µM (inactive) | GI50 (SNB-75): > 41.9 µM (inactive) | GI50 (RPMI-8226): > 32.1 µM (inactive) | GI50 (UO-31): 18.1 µM (inactive) | GI50 (786-0): 22.1 µM (inactive) | GI50 (NCI-H226): 18.5 µM (inactive) | GI50 (SW-620): > 51.8 µM (inactive)

CN(C)c1ccc(/C=C/C=C(/C#N)c2ccccc2)cc1
GI50 (DU-145): 55.7 µM (inactive) | GI50 (Hs-578T): 21.9 µM (inactive) | GI50 (EKVX): 55.2 µM (inactive) | GI50 (SK-MEL-2): 13.7 µM (inactive) | GI50 (LOX IMVI): 11.2 µM (inactive) | GI50 (CCRF-CEM): 22.3 µM (inactive) | GI50 (NCI/ADR-RES): 6.92 µM (inactive) | GI50 (HT-29): 7.57 µM (inactive) | GI50 (HCC 2998): 30.3 µM (inactive) | GI50 (MOLT-4): 11.8 µM (inactive) | GI50 (MDA-MB-231): 37.8 µM (inactive) | GI50 (MCF7): 17.7 µM (inactive) | GI50 (BT-549): > 100 µM (inactive) | GI50 (HOP-92): 78.7 µM (inactive) | GI50 (SNB-75): 28.4 µM (inactive) | GI50 (RPMI-8226): 21.9 µM (inactive) | GI50 (UO-31): > 46 µM (inactive) | GI50 (786-0): 28.1 µM (inactive) | GI50 (NCI-H226): 53.1 µM (inactive) | GI50 (SW-620): 6.34 µM (inactive)

N#Cc1c(SCc2ccccc2)nc(-c2ccccc2)[nH]c1=S
GI50 (DU-145): 42 µM (inactive) | GI50 (Hs-578T): 32.1 µM (inactive) | GI50 (EKVX): 31.5 µM (inactive) | GI50 (SK-MEL-2): 16.7 µM (inactive) | GI50 (LOX IMVI): 30 µM (inactive) | GI50 (CCRF-CEM): 34.3 µM (inactive) | GI50 (NCI/ADR-RES): 23.5 µM (inactive) | GI50 (HT-29): 28.4 µM (inactive) | GI50 (HCC 2998): 19.3 µM (inactive) | GI50 (MOLT-4): 29 µM (inactive) | GI50 (MDA-MB-231): 37.4 µM (inactive) | GI50 (MCF7): 26.1 µM (inactive) | GI50 (BT-549): 20.6 µM (inactive) | GI50 (HOP-92): 31.6 µM (inactive) | GI50 (SNB-75): 19.1 µM (inactive) | GI50 (RPMI-8226): 24.7 µM (inactive) | GI50 (UO-31): 17.8 µM (inactive) | GI50 (786-0): 22.3 µM (inactive) | GI50 (NCI-H226): 26.5 µM (inactive) | GI50 (SW-620): 25.6 µM (inactive)
